Where only a bound is given, the exact number is not on record here.

The target of assay [1] is T1, human mTOR (His-tagged mTOR (1362C)) (Homo sapiens, UniProt P42345).
T1 construct: the 1362 to 2549 amino acid portion on the C terminus side of human mTOR; His tag (N); made in house
The assay is described as follows: mTOR kinase activity inhibition assay. Format: biochemical. Conditions: HTRF, read-out: IC50 against mTOR. In short, it runs like this:
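Crude His-tagged mTOR (aa 1362–2549) from stable HEK293 cells, with 8 μg/ml biotinylated peptide in 50 mM HEPES pH 7.5, 20 mM MnCl2; compound diluted in 20 μM ATP solution, reaction 3 h at room temperature. Phospho-peptide detected by HTRF (anti-phospho-S6K Thr389 cryptate/streptavidin-XL665, overnight at 4°C), 665/620 nm ratio. IC50 derived from curve fit of % inhibition.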

For assay [2], the system named is human endometrial cancer cell strain AN3CA. The assay is described as follows: Cell growth inhibition test (MTT), AN3CA. Conditions: AN3-CA, 72 h, 3 days culture, read-out: concentration exhibiting anti-cell effect (GI50). The format is cell-based. The method, boiled down: (§1)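 Living cells were counted by MTT reduction (4 h; formazan dissolved in DMSO, A540) after 3-day compound exposure at 37° C, 5% CO2. Seeding was 5000 (AN3CA), 1000 (IGROV1) or 5000 (HT29) cells/well, dosing the following day. Growth rate T/C % used pre-dose baseline; GI50 interpolated at 50%.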

The test system of assay [3] is human colon cancer cell strain HT29. The assay is described as follows: Cell growth inhibition test (MTT), HT29. Conditions: HT-29, 72 h, HT29, 3 days culture, read-out: concentration exhibiting anti-cell effect (GI50). The format is cell-based. The method, boiled down: as §1

T1 sequence (P42345 1362-2549): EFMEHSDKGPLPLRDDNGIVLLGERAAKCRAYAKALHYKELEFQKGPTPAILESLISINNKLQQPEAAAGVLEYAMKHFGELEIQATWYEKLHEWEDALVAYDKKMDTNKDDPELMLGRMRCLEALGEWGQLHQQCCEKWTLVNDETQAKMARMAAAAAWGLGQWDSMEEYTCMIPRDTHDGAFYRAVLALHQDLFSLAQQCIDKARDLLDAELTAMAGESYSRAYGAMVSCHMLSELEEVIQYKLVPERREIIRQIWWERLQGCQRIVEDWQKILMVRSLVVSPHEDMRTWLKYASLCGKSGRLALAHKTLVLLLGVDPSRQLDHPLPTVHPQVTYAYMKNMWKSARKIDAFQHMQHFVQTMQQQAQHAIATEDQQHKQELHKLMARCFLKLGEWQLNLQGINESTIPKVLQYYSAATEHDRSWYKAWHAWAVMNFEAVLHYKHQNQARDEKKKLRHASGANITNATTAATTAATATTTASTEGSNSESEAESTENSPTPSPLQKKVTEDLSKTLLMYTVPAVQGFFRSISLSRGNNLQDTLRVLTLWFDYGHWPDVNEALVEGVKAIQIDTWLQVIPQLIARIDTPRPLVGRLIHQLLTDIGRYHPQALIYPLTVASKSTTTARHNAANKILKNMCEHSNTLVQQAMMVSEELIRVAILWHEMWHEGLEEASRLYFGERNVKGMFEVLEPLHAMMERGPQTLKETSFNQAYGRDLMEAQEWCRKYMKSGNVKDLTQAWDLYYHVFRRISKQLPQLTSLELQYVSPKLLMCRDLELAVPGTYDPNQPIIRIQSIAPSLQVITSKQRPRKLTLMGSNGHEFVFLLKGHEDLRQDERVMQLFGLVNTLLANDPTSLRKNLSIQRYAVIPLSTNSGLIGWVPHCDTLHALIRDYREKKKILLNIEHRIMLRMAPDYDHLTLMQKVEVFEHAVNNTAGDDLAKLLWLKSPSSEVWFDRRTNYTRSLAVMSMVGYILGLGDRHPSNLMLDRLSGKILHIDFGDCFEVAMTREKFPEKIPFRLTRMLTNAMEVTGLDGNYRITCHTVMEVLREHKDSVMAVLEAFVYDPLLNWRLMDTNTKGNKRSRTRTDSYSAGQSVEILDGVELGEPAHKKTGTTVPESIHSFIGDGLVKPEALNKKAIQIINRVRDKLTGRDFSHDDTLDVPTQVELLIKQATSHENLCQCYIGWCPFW

As for `CC(=O)N1CCN(c2nc3c(N4CCOCC4)nc(-c4cnc(N)nc4)nc3n2CC2CC2)C[C@@H]1C` [Example 96, 5-{8-[(3S)-4-Acetyl-3-methylpiperazin-1-yl]-9-(cyclopropylmethyl)-6-morpholin-4-yl-9H-purin-2-yl}pyrimidin-2-amine], the IC50 in assay [1] was under 0.01 µM. In addition, the GI50 in assay [2] and in assay [3] was at most 5 µM each time.

In the case of `CC(C)Cn1c(N2CCN(S(C)(=O)=O)[C@@H](C)C2)nc2c(N3CCOCC3)nc(-c3cnc(N)nc3)nc21` [Example 53, 5-{9-Isobutyl-8-[(3S)-3-methyl-4-(methylsulfonyl)piperazin-1-yl]-6-morpholin-4-yl-9H-purin-2-yl}pyrimidin-2-amine], the IC50 in assay [1] was in the range of 0.01 to 0.03 µM. Besides, the GI50 in assay [2] and in assay [3] was at most 5 µM each time.

On to `Cc1nc(N)ncc1-c1nc(N2CCOCC2)c2nc(N3CCN(S(C)(=O)=O)CC3)n(CC3CC3)c2n1` [Example 6, 5-{9-(Cyclopropylmethyl)-8-[4-(methylsulfonyl)piperazin-1-yl]-6-morpholin-4-yl-9H-purin-2-yl}-4-methylpyrimidin-2-amine], for which the IC50 in assay [1] fell in the range of 0.1 to 0.5 µM. Moreover, the GI50 in assay [2] and in assay [3] was at most 5 µM throughout.

For `CC(=O)N1CCN(c2nc3c(N4CCOCC4)nc(-c4cnc(N)nc4)nc3n2CC(F)(F)F)C[C@@H]1C` [Example 63, 5-{8-[(3S)-4-Acetyl-3-methylpiperazin-1-yl]-6-morpholin-4-yl-9-(2,2,2-trifluoroethyl)-9H-purin-2-yl}pyrimidin-2-amine], the IC50 in assay [1] is under 0.01 µM. Moreover, the GI50 in assay [2] and in assay [3] was at most 5 µM throughout.

As for `CC(=O)N1CCN(c2nc3c(N4CCOC[C@@H]4C)nc(-c4cnc(N)nc4)nc3n2CC(C)C)CC1` [Example 129, 5-{8-(4-Acetylpiperazin-1-yl)-9-isobutyl-6-[(3S)-3-methylmorpholin-4-yl]-9H-purin-2-yl}pyrimidin-2-amine], the IC50 in assay [1] lay within 0.01 to 0.03 µM. The GI50 in assay [2] and in assay [3] was at most 5 µM in each case.

For `CC(C)Cn1c(N2CCN(C(=O)CO)CC2)nc2c(N3CCOC[C@@H]3C)nc(-c3cnc(N)nc3)nc21` [Example 130, 2-(4-{2-(2-Aminopyrimidin-5-yl)-9-isobutyl-6-[(3S)-3-methylmorpholin-4-yl]-9H-purin-8-yl}piperazin-1-yl)-2-oxoethanol], in assay [1], the IC50 is under 0.01 µM. The GI50 in assay [2] and in assay [3] was at most 5 µM each time.

On to `C[C@@H]1CN(c2nc3c(N4CCOCC4)nc(-c4cnc(N)nc4)nc3n2CC2CC2)CCN1C(=O)[C@@H](C)O` [Example 114, (2R)-1-{(2R)-4-[2-(2-Aminopyrimidin-5-yl)-9-(cyclopropylmethyl)-6-morpholin-4-yl-9H-purin-8-yl]-2-methylpiperazin-1-yl}-1-oxopropan-2-ol], for which the IC50 in assay [1] was in the range of 0.01 to 0.03 µM. The GI50 in assay [2] and in assay [3] was at most 5 µM in each case.

In the case of `C[C@@H]1CN(c2nc3c(N4CCOCC4)nc(-c4cnc(N)nc4)nc3n2CC(F)(F)F)C[C@H](C)N1` [Example 14, 5-[8-(cis-3,5-Dimethylpiperazin-1-yl)-6-morpholin-4-yl-9-(2,2,2-trifluoroethyl)-9H-purin-2-yl]pyrimidin-2-amine], the IC50 in assay [1] was in the range of 0.01 to 0.03 µM. Besides, the GI50 in assay [2] and in assay [3] was at most 5 µM each time.

As to `CS(=O)(=O)N1CCN(c2nc3c(N4CCOCC4)nc(-c4cnc(N)nc4)nc3n2CC2CC2)CC1` [Example 3, 5-{9-(Cyclopropylmethyl)-8-[4-(methylsulfonyl)piperazin-1-yl]-6-morpholin-4-yl-9H-purin-2-yl}pyrimidin-2-amine], the IC50 in assay [1] lay in the range of 0.01 to 0.03 µM. Further, the GI50 in assay [2] and in assay [3] was at most 5 µM in each case.

Take `C[C@@H](O)C(=O)N1CCN(c2nc3c(N4CCOCC4)nc(-c4cnc(N)nc4)nc3n2CC2CC2)C[C@@H]1C` [Example 113, (2R)-1-{(2S)-4-[2-(2-Aminopyrimidin-5-yl)-9-(cyclopropylmethyl)-6-morpholin-4-yl-9H-purin-8-yl]-2-methylpiperazin-1-yl}-1-oxopropan-2-ol]: the IC50 in assay [1] was under 0.01 µM. The GI50 in assay [2] and in assay [3] was at most 5 µM each time.

Take `C[C@H](O)C(=O)N1CCN(c2nc3c(N4CCOCC4)nc(-c4cnc(N)nc4)nc3n2CC(F)(F)F)C[C@H]1C` [Example 110, (2S)-1-{(2R)-4-[2-(2-Aminopyrimidin-5-yl)-6-morpholin-4-yl-9-(2,2,2-trifluoroethyl)-9H-purin-8-yl]-2-methylpiperazin-1-yl}-1-oxopropan-2-ol]: the IC50 in assay [1] was under 0.01 µM. Moreover, the GI50 in assay [2] and in assay [3] was at most 5 µM each time.

As to `CC(C)Cn1c(N2CCN(C(=O)C[C@@H](C)O)[C@H](C)C2)nc2c(N3CCOCC3)nc(-c3cnc(N)nc3)nc21` [Example 84, (2R)-4-{(2R)-4-[2-(2-Aminopyrimidin-5-yl)-9-isobutyl-6-morpholin-4-yl-9H-purin-8-yl]-2-methylpiperazin-1-yl}-4-oxobutan-2-ol], in assay [1], the IC50 was in the range of 0.01 to 0.03 µM. Also, the GI50 in assay [2] and in assay [3] was at most 5 µM each time.

As to `CC(C)Cn1c(N2CCN(C(=O)[C@@H](C)O)CC2)nc2c(N3CCOCC3)nc(-c3cnc(N)nc3)nc21` [Example 93], the IC50 in assay [1] is 0.01 to 0.03 µM. Also, the GI50 in assay [2] and in assay [3] was at most 5 µM each time.

Regarding `Nc1ncc(-c2nc(N3CCOCC3)c3nc(N4CCN(C=O)CC4)n(CC(F)(F)F)c3n2)cn1` [Example 71, 4-[2-(2-Aminopyrimidin-5-yl)-6-morpholin-4-yl-9-(2,2,2-trifluoroethyl)-9H-purin-8-yl]piperazine-1-carboaldehyde], the 50% inhibitory concentration (IC50) in assay [1] is under 0.01 µM. The GI50 in assay [2] and in assay [3] was at most 5 µM throughout.

Take `C[C@H](O)C(=O)N1CCN(c2nc3c(N4CCOCC4)nc(-c4cnc(N)nc4)nc3n2CC2CC2)C[C@H]1C` [Example 95, (2S)-1-{(2R)-4-[2-(2-Aminopyrimidin-5-yl)-9-(cyclopropylmethyl)-6-morpholin-4-yl-9H-purin-8-yl]-2-methylpiperazin-1-yl}-1-oxopropan-2-ol]: in assay [1], the IC50 lay within 0.01 to 0.03 µM. Besides, the GI50 in assay [2] and in assay [3] was at most 5 µM each time.

Regarding `C[C@H](O)C(=O)N1CCN(c2nc3c(N4CCOCC4)nc(-c4cnc(N)nc4)nc3n2CC2CC2)C[C@@H]1C` [Example 92, (2S)-1-{(2S)-4-[2-(2-Aminopyrimidin-5-yl)-9-(cyclopropylmethyl)-6-morpholin-4-yl-9H-purin-8-yl]-2-methylpiperazin-1-yl}-1-oxopropan-2-ol], in assay [1], the IC50 is 0.01 to 0.03 µM. In addition, the GI50 in assay [2] and in assay [3] was at most 5 µM in each case.

For `CC(C)Cn1c(N2CCN(C=O)CC2)nc2c(N3CCOC[C@@H]3C)nc(-c3cnc(N)nc3)nc21` [Example 132, 4-{2-(2-Aminopyrimidin-5-yl)-9-isobutyl-6-[(3S)-3-methylmorpholin-4-yl]-9H-purin-8-yl}piperazine-1-carboaldehyde], the IC50 in assay [1] is 0.01 to 0.03 µM. Besides, the GI50 in assay [2] and in assay [3] was at most 5 µM each time.

In the case of `CC(=O)C(=O)N1CCN(c2nc3c(N4CCOCC4)nc(-c4cnc(N)nc4)nc3n2CC(F)(F)F)CC1` [Example 65, 1-{4-[2-(2-Aminopyrimidin-5-yl)-6-morpholin-4-yl-9-(2,2,2-trifluoroethyl)-9H-purin-8-yl]piperazin-1-yl}-1-oxoacetone], the IC50 in assay [1] is under 0.01 µM. For the same molecule, the GI50 in assay [2] and in assay [3] was at most 5 µM each time.

As to `CC(=O)N1[C@H](C)CN(c2nc3c(N4CCOCC4)nc(-c4cnc(N)nc4)nc3n2CC2CC2)C[C@@H]1C` [Example 98, 5-{8-[4-Acetyl-cis-3,5-dimethylpiperazin-1-yl]-9-(cyclopropylmethyl)-6-morpholin-4-yl-9H-purin-2-yl}pyrimidin-2-amine], the IC50 in assay [1] was under 0.01 µM. The GI50 in assay [2] and in assay [3] was at most 5 µM throughout.

For the molecule `CN(C)C(=O)C(=O)N1CCN(c2nc3c(N4CCOCC4)nc(-c4cnc(N)nc4)nc3n2CC(F)(F)F)CC1` [Example 66, 2-{4-[2-(2-Aminopyrimidin-5-yl)-6-morpholin-4-yl-9-(2,2,2-trifluoroethyl)-9H-purin-8-yl]piperazin-1-yl}-N,N-dimethyl-2-oxoacetamide], the IC50 in assay [1] was under 0.01 µM. In addition, the GI50 in assay [2] and in assay [3] was at most 5 µM each time.

On to `CNc1ncc(-c2nc(N3CCOCC3)c3nc(N4CCN(C(C)=O)[C@H](C)C4)n(CC(F)(F)F)c3n2)cn1` [Example 108, 5-{8-[(3R)-4-Acetyl-3-methylpiperazin-1-yl]-6-morpholin-4-yl-9-(2,2,2-trifluoroethyl)-9H-purin-2-yl}-N-methylpyrimidin-2-amine], for which, in assay [1], the IC50 is under 0.01 µM. Besides, the GI50 in assay [2] and in assay [3] was at most 5 µM in each case.

In the case of `CNc1ncc(-c2nc(N3CCOCC3)c3nc(N4CCN(C(C)=O)CC4)n(CC(F)(F)F)c3n2)cn1` [Example 134, 5-[8-(4-Acetylpiperazin-1-yl)-6-morpholin-4-yl-9-(2,2,2-trifluoroethyl)-9H-purin-2-yl]-N-methylpyrimidin-2-amine], the IC50 in assay [1] was under 0.01 µM. Besides, the GI50 in assay [2] and in assay [3] was at most 5 µM each time.

The record behind these values is patent US8309546B2, “Morpholinopurine derivatives” (Daiichi Sankyo Company, Limited, priority 2008, dated 2012).
